Source: ChEMBL document CHEMBL1137945, “Design, synthesis, and activity of HDAC inhibitors with a N-formyl hydroxylamine head group” (Bioorg Med Chem Lett, 2004)
Each block holds one compound with its values, some of them ahead of it.

Experiments:
Histone deacetylase 8 = molecular target: T1, Histone deacetylase 8 (Homo sapiens, UniProt Q9BY41)
T1 sequence (Q9BY41 whole entry): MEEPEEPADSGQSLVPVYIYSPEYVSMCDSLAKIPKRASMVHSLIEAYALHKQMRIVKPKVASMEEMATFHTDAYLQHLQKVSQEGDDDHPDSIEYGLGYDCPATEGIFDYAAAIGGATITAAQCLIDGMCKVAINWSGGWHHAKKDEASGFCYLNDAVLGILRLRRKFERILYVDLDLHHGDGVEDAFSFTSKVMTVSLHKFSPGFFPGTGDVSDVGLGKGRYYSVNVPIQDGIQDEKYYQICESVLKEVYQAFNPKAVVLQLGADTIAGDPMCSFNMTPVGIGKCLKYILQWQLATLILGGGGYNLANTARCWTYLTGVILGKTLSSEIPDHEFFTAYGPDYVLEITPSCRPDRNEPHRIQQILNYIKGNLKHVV
Description: Inhibition of Histone deacetylase 8 (HDAC8) of HeLa nuclear extracts

Histone deacetylase 2 = Histone deacetylase 2 (Homo sapiens, UniProt Q92769); experiment: Inhibition of Histone deacetylase 2 (HDAC2) activity of HeLa nuclear extracts
Histone deacetylase 2, sequence (Q92769 whole entry): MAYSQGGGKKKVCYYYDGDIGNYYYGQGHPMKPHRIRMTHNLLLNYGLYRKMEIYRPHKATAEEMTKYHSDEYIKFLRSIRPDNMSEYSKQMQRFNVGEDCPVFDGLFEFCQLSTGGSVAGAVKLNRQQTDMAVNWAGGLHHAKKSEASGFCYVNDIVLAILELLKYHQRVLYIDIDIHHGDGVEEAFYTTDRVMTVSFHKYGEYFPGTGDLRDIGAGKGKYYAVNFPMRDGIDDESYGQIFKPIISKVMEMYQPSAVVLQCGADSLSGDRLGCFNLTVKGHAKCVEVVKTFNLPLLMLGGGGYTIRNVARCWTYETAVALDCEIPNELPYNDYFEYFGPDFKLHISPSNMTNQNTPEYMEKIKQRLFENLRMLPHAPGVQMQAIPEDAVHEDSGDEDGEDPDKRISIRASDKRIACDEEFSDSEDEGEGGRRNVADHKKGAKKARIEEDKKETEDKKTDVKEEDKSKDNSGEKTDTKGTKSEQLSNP

Histone deacetylase = experiment: Inhibition of Histone deacetylase (HDAC)of HeLa nuclear extracts; assay type: protein assay, Homo sapiens
[1] = molecular target: T2, Protein deacetylase HDAC6 (Homo sapiens, UniProt Q9UBN7)
T2 sequence (Q9UBN7 whole entry): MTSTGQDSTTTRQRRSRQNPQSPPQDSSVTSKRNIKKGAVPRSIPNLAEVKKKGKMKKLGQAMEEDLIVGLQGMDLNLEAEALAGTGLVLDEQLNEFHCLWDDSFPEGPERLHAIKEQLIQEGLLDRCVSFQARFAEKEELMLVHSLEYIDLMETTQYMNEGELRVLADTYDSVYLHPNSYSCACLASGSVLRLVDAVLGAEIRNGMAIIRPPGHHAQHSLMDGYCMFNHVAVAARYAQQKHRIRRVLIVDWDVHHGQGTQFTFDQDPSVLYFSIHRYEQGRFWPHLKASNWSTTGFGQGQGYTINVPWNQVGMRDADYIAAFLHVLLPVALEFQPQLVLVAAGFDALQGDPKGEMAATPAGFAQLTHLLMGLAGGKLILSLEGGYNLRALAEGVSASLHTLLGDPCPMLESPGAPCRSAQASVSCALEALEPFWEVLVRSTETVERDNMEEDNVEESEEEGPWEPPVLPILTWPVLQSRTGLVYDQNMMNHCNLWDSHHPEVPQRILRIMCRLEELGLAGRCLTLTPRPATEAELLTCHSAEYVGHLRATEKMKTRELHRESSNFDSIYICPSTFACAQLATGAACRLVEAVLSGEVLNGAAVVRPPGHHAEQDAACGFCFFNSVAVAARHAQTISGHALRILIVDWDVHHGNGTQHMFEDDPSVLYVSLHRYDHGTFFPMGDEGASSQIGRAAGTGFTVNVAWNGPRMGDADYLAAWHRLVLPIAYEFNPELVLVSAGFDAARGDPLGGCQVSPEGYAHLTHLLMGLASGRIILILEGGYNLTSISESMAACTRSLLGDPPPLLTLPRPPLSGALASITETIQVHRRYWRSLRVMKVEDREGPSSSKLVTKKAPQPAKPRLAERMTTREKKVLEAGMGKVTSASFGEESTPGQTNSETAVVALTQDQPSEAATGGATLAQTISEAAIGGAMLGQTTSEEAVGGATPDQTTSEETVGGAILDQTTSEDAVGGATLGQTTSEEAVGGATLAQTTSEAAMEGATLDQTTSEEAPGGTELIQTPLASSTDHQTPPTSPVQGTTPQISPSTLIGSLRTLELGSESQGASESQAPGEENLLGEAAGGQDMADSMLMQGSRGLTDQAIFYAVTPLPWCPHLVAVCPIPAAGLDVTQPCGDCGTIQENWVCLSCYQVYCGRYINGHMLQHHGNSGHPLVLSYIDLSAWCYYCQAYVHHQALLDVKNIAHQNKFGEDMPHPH
Description: Inhibition of Histone deacetylase 6 (HDAC6) of HeLa nuclear extracts

Histone deacetylase 1 = Histone deacetylase 1 (Homo sapiens, UniProt Q13547)
Histone deacetylase 1, sequence (Q13547 whole entry): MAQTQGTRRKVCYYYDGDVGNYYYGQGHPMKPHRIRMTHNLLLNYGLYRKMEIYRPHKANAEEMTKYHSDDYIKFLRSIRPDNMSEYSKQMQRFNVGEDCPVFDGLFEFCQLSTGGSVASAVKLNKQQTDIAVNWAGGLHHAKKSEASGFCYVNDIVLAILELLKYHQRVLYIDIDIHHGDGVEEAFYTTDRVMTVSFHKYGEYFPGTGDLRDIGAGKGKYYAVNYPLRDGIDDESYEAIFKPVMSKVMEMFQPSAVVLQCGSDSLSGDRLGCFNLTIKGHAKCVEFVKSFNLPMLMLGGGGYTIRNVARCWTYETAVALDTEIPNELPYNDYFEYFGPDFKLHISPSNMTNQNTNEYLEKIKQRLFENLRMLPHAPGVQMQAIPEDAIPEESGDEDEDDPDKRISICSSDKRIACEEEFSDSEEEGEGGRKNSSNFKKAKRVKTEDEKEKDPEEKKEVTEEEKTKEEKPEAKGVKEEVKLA
Description: Inhibition of Histone deacetylase 1 (HDAC1) of HeLa nuclear extracts

Homo sapiens = species on record: Homo sapiens; experiment: Compound was tested for anti-proliferative activity in human hepatocytes; assay type: functional, organism-based; details: Hepatocyte
[2] = Activity in histone hyperacetylation assay in cells; assay type: functional
U-937 = experiment: Compound was tested for anti-proliferative activity in U-937 human leukemia cell line; assay type: functional, cell-based
[3] = test system: bone marrow cells (Homo sapiens); experiment: cells
Jurkat = experiment: Compound was tested for anti-proliferative activity in Jurkat human leukemia cell line; assay type: functional, cell-based

Structure (SMILES): O=CN(O)CCCCCCCC(=O)Nc1cccc2ccccc12
IC50 (Histone deacetylase 8): 0.65 µM | IC50 (Histone deacetylase 2): 5.9 µM | IC50 (Histone deacetylase): 50 µM | IC50 [1]: 3.1 µM | IC50 (Histone deacetylase 1): 5.7 µM

Structure (SMILES): O=CN(O)CCCCCC(C(=O)Nc1cnc2ccccc2c1)C(=O)Nc1cnc2ccccc2c1
IC50 (Histone deacetylase 8): 0.69 µM | EC50 (Homo sapiens): 41 µM | IC50 (Histone deacetylase 2): 0.2 µM | IC50 (Histone deacetylase): 0.97 µM | IC50 [1]: 0.78 µM | EC50 [2]: 5.1 µM | EC50 (U-937): 40 µM | IC50 (Histone deacetylase 1): 0.16 µM | EC50 [3]: 78 µM | EC50 (Jurkat): 11 µM

Structure (SMILES): O=CN(O)CCCCCNC(=O)c1ccc2ccccc2c1
IC50 (Histone deacetylase 8): 7 µM | IC50 (Histone deacetylase 2): 1.4 µM | IC50 (Histone deacetylase): 4.4 µM | IC50 [1]: 0.6 µM | IC50 (Histone deacetylase 1): 1.3 µM

Structure (SMILES): O=CN(O)CCCCCNC(=O)CCc1ccccc1
IC50 (Histone deacetylase 8): 9.7 µM | IC50 (Histone deacetylase 2): 41 µM | IC50 (Histone deacetylase): > 100 µM | IC50 [1]: 30 µM | IC50 (Histone deacetylase 1): 49 µM

Structure (SMILES): O=CN(O)CCCCCNC(=O)c1ccccc1
IC50 (Histone deacetylase 8): 22 µM | IC50 (Histone deacetylase 2): 26 µM | IC50 (Histone deacetylase): > 100 µM | IC50 [1]: 4.3 µM | IC50 (Histone deacetylase 1): 30 µM

Structure (SMILES): O=CN(O)CCCCCC(C(=O)Nc1ccc2ncccc2c1)C(=O)Nc1ccc2ncccc2c1
IC50 (Histone deacetylase 8): 0.8 µM | EC50 (Homo sapiens): > 500 µM | IC50 (Histone deacetylase 2): 0.27 µM | IC50 (Histone deacetylase): 0.75 µM | IC50 [1]: 0.62 µM | EC50 [2]: 10 µM | EC50 (U-937): 100 µM | IC50 (Histone deacetylase 1): 0.18 µM | EC50 [3]: 130 µM | EC50 (Jurkat): 31 µM

Structure (SMILES): O=C(CCCCCCC(=O)Nc1ccccc1)NO [VORINOSTAT]
EC50 (U-937): 33 µM | EC50 (Jurkat): 2.3 µM

Structure (SMILES): O=CN(O)CCCCCCCC(=O)Nc1ccc2ccccc2c1
IC50 (Histone deacetylase 8): 0.78 µM | IC50 (Histone deacetylase 2): 0.89 µM | IC50 (Histone deacetylase): 4 µM | IC50 [1]: 0.91 µM | IC50 (Histone deacetylase 1): 0.81 µM

Now from value to compound:

IC50 (Histone deacetylase 8): > 100 µM | IC50 (Histone deacetylase 2): > 100 µM | IC50 [1]: > 100 µM
Structure (SMILES): COC(=O)N(O)CCCCCCC(=O)Nc1ccccc1

IC50 (Histone deacetylase 8): 2.8 µM | IC50 (Histone deacetylase 2): 7.8 µM | IC50 [1]: 5.5 µM
Structure (SMILES): O=CN(O)CCCCCCCC(=O)Nc1ccccc1

IC50 (Histone deacetylase 8): 4 µM | IC50 (Histone deacetylase 2): 11 µM
Structure (SMILES): O=CN(O)CCCCCCC(=O)Nc1ccccc1

IC50 (Histone deacetylase 8): 6.8 µM | IC50 (Histone deacetylase 2): 19 µM | IC50 [1]: 2.8 µM
Structure (SMILES): O=CN(O)CCCCCC(=O)Nc1ccccc1

IC50 (Histone deacetylase 8): > 100 µM | IC50 (Histone deacetylase 2): > 100 µM | IC50 [1]: > 100 µM
Structure (SMILES): CC(=O)N(O)CCCCCCCC(=O)Nc1ccccc1

IC50 (Histone deacetylase 8): > 100 µM | IC50 (Histone deacetylase 2): > 100 µM | IC50 (Histone deacetylase): > 100 µM | IC50 [1]: > 100 µM
Structure (SMILES): CC(=O)N(O)CCCCCC(=O)Nc1ccccc1
